Results reported in US6150385A, “1,3,4-thiadiazoles useful for the treatment of CMV infections” (Pharmacia & Upjohn Company, priority 1999, dated 2000).

biological target: T1, HCMV polymerase (Human cytomegalovirus, UniProt P08546); assay: HCMV polymerase assay (scintillation proximity assay); type: biochemical; settings: percentage of inhibition at 25 μM concentration in CMV polymerase assay
T1 construct: made in house; host or cells: SF-9 insect cells infected with recombinant baculovirus
How it was run: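 Baculovirus/SF-9-expressed HCMV polymerase in 5.4 mM HEPES pH 7.5, 11.7 mM KCl, 4.5 mM MgCl2, 0.36 mg/ml BSA, 90 nM 3H-dTTP, with or without 2 mM CHAPS. Started with 6 nM biotinylated poly(dA)-oligo(dT), 30 min at 25 or 37 °C, EDTA-stopped, read by streptavidin-SPA counting; % inhibition at 25 μM.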

T1 sequence (P08546 whole entry): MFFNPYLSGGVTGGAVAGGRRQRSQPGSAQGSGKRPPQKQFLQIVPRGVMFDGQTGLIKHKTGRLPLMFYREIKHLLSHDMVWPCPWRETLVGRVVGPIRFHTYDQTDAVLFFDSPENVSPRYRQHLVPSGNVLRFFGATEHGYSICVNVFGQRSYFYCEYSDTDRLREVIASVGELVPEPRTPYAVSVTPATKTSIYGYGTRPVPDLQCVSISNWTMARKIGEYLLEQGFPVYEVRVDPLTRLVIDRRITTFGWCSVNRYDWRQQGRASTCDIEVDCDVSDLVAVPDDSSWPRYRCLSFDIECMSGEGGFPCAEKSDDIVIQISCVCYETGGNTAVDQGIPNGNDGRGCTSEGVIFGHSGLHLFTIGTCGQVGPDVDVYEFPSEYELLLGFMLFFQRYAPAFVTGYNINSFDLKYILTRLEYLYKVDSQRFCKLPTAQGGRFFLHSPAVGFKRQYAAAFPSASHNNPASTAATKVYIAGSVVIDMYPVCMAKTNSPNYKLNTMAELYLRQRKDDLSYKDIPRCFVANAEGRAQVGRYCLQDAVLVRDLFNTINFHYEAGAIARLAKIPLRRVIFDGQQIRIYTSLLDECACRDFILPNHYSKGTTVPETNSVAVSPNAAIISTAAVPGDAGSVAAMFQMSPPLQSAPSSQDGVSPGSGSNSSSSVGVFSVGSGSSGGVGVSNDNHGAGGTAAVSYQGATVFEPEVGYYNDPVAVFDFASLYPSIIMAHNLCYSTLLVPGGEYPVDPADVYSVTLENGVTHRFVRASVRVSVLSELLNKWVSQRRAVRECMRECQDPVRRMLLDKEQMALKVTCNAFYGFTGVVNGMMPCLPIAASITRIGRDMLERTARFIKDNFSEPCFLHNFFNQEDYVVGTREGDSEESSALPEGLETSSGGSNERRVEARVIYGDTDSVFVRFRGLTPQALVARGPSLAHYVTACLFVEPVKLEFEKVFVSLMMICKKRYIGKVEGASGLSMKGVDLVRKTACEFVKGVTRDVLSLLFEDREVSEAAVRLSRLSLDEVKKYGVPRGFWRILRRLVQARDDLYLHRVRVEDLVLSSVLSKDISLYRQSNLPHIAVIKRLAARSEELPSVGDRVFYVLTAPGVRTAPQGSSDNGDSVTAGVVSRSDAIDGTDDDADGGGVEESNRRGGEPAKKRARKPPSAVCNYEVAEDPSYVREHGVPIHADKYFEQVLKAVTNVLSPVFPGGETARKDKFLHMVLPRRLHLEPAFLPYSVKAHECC

SMILES | inhibition at 25 µM [%] | % Inhib [%]
O=C(Nc1nnc(NCc2ccc(F)cc2)s1)c1cc2ccccc2s1 [compound 361, N-{5-[(4-fluorobenzyl)amino]-1,3,4-thiadiazol-2-yl}-1-benzothiophene-2-carboxamide] | 28.8 | 
O=C(Nc1nnc(NCc2cccc3ccccc23)s1)c1cc(F)cc(F)c1 [compound 362, 3,5-difluoro-N-{5-[(1-naphthylmethyl)amino]-1,3,4-thiadiazol-2-yl}benzamide] | 28.8 | 
O=C(Nc1nnc(NCc2cccc3ccccc23)s1)c1ccc(F)cc1F [compound 363, 2,4-difluoro-N-{5-[(1-naphthylmethyl)amino]-1,3,4-thiadiazol-2-yl}benzamide] | 28.8 | 
N#Cc1ccc(C(=O)Nc2nnc(NCC3CCCCC3)s2)cc1 [compound 364, 4-cyano-N-{5-[(cyclohexylmethyl)amino]-1,3,4-thiadiazol-2-yl}benzamide] | 28.7 | 
N#Cc1ccc(C(=O)Nc2nnc(NCc3cccs3)s2)cc1 [compound 365, 4-cyano-N-{5-[(2-thienylmethyl)amino]-1,3,4-thiadiazol-2-yl}benzamide] | 28.7 | 
COc1ccccc1C(=O)Nc1nnc(NCCc2ccc(S(N)(=O)=O)cc2)s1 [compound 366, N-(5-{[4-(aminosulfonyl)phenethyl]amino}-1,3,4-thiadiazol-2-yl)-2-methoxybenzamide] | 28.6 | 
O=C(Nc1nnc(NC2CCN(Cc3ccccc3)CC2)s1)c1ccc(I)cc1 [compound 367, N-{5-[(1-benzyl-4-piperidinyl)amino]-1,3,4-thiadiazol-2-yl}-4-iodobenzamide] | 28.6 | 
CCOC(=O)N1CCC(Nc2nnc(NC(=O)c3cc4ccccc4s3)s2)CC1 [compound 368, ethyl 4-({5-[(1-benzothiophen-2-ylcarbonyl)amino]-1,3,4-thiadiazol-2-yl}amino)tetrahydro-1(2H)-pyridinecarboxylate] | 28.5 | 
O=C(Nc1nnc(NC2CCCCCC2)s1)c1c(Cl)cccc1Cl [compound 369, 2,6-dichloro-N-[5-(cycloheptylamino)-1,3,4-thiadiazol-2-yl]benzamide] | 28.3 | 
O=C(Nc1nnc(NCCN2CCCC2)s1)c1c(Cl)cccc1Cl [compound 370, 2,6-dichloro-N-(5-{[2-(1-pyrrolidinyl)ethyl]amino}-1,3,4-thiadiazol-2-yl)benzamide] | 28.3 | 
O=C(Nc1nnc(NCCCN2CCCC2=O)s1)c1ccc(S(=O)(=O)F)cc1 [compound 371, 4-{[(5-{[3-(2-oxo-1-pyrrolidinyl)propyl]amino}-1,3,4-thiadiazol-2-yl)amino]carbonyl}benzenesulfonyl fluoride] |  | 28.1
O=C(Nc1nnc(NCc2ccc3c(c2)OCO3)s1)c1cc(F)cc(F)c1 [compound 372, N-{5-[(1,3-benzodioxol-5-ylmethyl)amino]-1,3,4-thiadiazol-2-yl}-3,5-difluorobenzamide] | 28.1 | 
O=C(Nc1nnc(NCCCCc2ccccc2)s1)c1cc(F)cc(F)c1 [compound 373, 3,5-difluoro-N-{5-[(4-phenylbutyl)amino]-1,3,4-thiadiazol-2-yl}benzamide] | 28.1 | 
O=C(/C=C/c1ccccc1Cl)Nc1nnc(NC2CCCc3ccccc32)s1 (stereo not shown) [compound 374, (E)-3-(2-chlorophenyl)-N-[5-(1,2,3,4-tetrahydro-1-naphthalenylamino)-1,3,4-thiadiazol-2-yl]-2-propenamide] | 28.1 | 
CCCCCCCCCCCNc1nnc(NC(=O)c2ccc(Cl)c(Cl)c2)s1 [compound 375, 3,4-dichloro-N-[5-(undecylamino)-1,3,4-thiadiazol-2-yl]benzamide] | 27.9 | 
O=C(Nc1nnc(NCCC(c2ccccc2)c2ccccc2)s1)c1ccc(C(F)(F)F)cc1 [compound 376, N-{5-[(3,3-diphenylpropyl)amino]-1,3,4-thiadiazol-2-yl}-4-(trifluoromethyl)benzamide] | 27.9 | 
O=C(Nc1nnc(NCCc2ccccc2)s1)c1c(Cl)cccc1Cl [compound 377, 2,6-dichloro-N-[5-(phenethylamino)-1,3,4-thiadiazol-2-yl]benzamide] | 27.8 | 
CCCCCCCC/C=C/CCCCCCCC(=O)Nc1nnc(NCCCn2ccnc2)s1 [compound 378, (E)-N-(5-{[3-(1H-imidazol-1-yl)propyl]amino}-1,3,4-thiadiazol-2-yl)-9-octadecenamide] | 27.8 | 
O=C(/C=C/c1ccccc1)Nc1nnc(NCCNc2ccccc2)s1 [compound 379, (E)-N-{5-[(2-anilinoethyl)amino]-1,3,4-thiadiazol-2-yl}-3-phenyl-2-propenamide] | 27.5 | 
O=C(Nc1nnc(NCC2CCCCC2)s1)c1ccc([N+](=O)[O-])o1 [compound 380, N-{5-[(cyclohexylmethyl)amino]-1,3,4-thiadiazol-2-yl}-5-nitro-2-furamide] | 27.5 | 

SMILES | inhibition at 25 µM [%] | % Inhib [%]
CC(C)c1cc(C(C)C)c(C(=O)Nc2nnc(NCCCN3CCCC3=O)s2)c(C(C)C)c1 [compound 381, 2,4,6-triisopropyl-N-(5-{[3-(2-oxo-1-pyrrolidinyl)propyl]amino}-1,3,4-thiadiazol-2-yl)benzamide] | 27.4 | 
O=C(CCCCCl)Nc1nnc(NCCCCc2ccccc2)s1 [compound 382, 5-chloro-N-{5-[(4-phenylbutyl)amino]-1,3,4-thiadiazol-2-yl}pentanamide] | 27.3 | 
COc1ccccc1C(=O)Nc1nnc(NCCC(c2ccccc2)c2ccccc2)s1 [compound 383, N-{5-[(3,3-diphenylpropyl)amino]-1,3,4-thiadiazol-2-yl}-2-methoxybenzamide] | 27.3 | 
O=C(Nc1nnc(NCC2CCCCC2)s1)c1ccc(Cl)c(Cl)c1 [compound 384, 3,4-dichloro-N-{5-[(cyclohexylmethyl)amino]-1,3,4-thiadiazol-2-yl}benzamide] | 27.2 | 
O=C(Nc1nnc(NCC(c2ccccc2)c2ccccc2)s1)c1ccc(Br)cc1 [compound 385, 4-bromo-N-{5-[(2,2-diphenylethyl)amino]-1,3,4-thiadiazol-2-yl}benzamide] | 27.2 | 
O=C(Nc1nnc(NCCC(c2ccccc2)c2ccccc2)s1)c1ccc(Br)cc1 [compound 386, 4-bromo-N-{5-[(3,3-diphenylpropyl)amino]-1,3,4-thiadiazol-2-yl}benzamide] | 26.9 | 
COc1ccccc1C(=O)Nc1nnc(NCCCNC2CCCCC2)s1 [compound 387, N-(5-{[3-(cyclohexylamino)propyl]amino}-1,3,4-thiadiazol-2-yl)-2-methoxybenzamide] | 26.8 | 
CC(C)c1cc(C(C)C)c(C(=O)Nc2nnc(NCCC(=O)OC(C)(C)C)s2)c(C(C)C)c1 [compound 388, tert-butyl 3-({5-[(2,4,6-triisopropylbenzoyl)amino]-1,3,4-thiadiazol-2-yl}amino)propanoate] | 26.6 | 
CC1(C)C2CC[C@@H](CNc3nnc(NC(=O)c4cc(F)cc(F)c4)s3)C1C2 (stereo partly drawn) [compound 389, N-[5-({[(2R)-6,6-dimethylbicyclo[3.1.1]hept-2-yl]methyl}amino)-1,3,4-thiadiazol-2-yl]-3,5-difluorobenzamide] | 26.5 | 
NS(=O)(=O)c1ccc(CCNc2nnc(NC(=O)CCCCCl)s2)cc1 [compound 390, N-(5-{[4-(aminosulfonyl)phenethyl]amino}-1,3,4-thiadiazol-2-yl)-5-chloropentanamide] | 26.3 | 
CCCCCCCC/C=C/CCCCCCCC(=O)Nc1nnc(NCCc2c[nH]cn2)s1 [compound 391, (E)-N-(5-{[2-(1H-imidazol-4-yl)ethyl]amino}-1,3,4-thiadiazol-2-yl)-9-octadecenamide] | 26.2 | 
CC(C)(C)CNc1nnc(NC(=O)c2c(Cl)cccc2Cl)s1 [compound 392, 2,6-dichloro-N-[5-(neopentylamino)-1,3,4-thiadiazol-2-yl]benzamide] | 26.2 | 
Cc1ccc(C(=O)Nc2nnc(NCCNc3ccccc3)s2)cc1 [compound 393, N-{5-[(2-anilinoethyl)amino]-1,3,4-thiadiazol-2-yl}-4-methylbenzamide] | 26.1 | 
COc1ccccc1C(=O)Nc1nnc(NCCNc2ccccc2)s1 [compound 394, N-{5-[(2-anilinoethyl)amino]-1,3,4-thiadiazol-2-yl}-2-methoxybenzamide] | 26 | 
Cc1ccc(C(=O)Nc2nnc(NCCCN3CCCC3=O)s2)cc1 [compound 395, 4-methyl-N-(5-{[3-(2-oxo-1-pyrrolidinyl)propyl]amino}-1,3,4-thiadiazol-2-yl)benzamide] | 25.9 | 
CC(C)c1cc(C(C)C)c(C(=O)Nc2nnc(NCCc3cccs3)s2)c(C(C)C)c1 [compound 396, 2,4,6-triisopropyl-N-(5-{[2-(2-thienyl)ethyl]amino}-1,3,4-thiadiazol-2-yl)benzamide] | 25.9 | 
O=C(/C=C/c1ccccc1Cl)Nc1nnc(NCCN2CCCC2)s1 [compound 397, (E)-3-(2-chlorophenyl)-N-(5-{[2-(1-pyrrolidinyl)ethyl]amino}-1,3,4-thiadiazol-2-yl)-2-propenamide] | 25.9 | 
NS(=O)(=O)c1ccc(CNc2nnc(NC(=O)c3ccc(C(F)(F)F)cc3)s2)cc1 [compound 398, N-(5-{[4-(aminosulfonyl)benzyl]amino}-1,3,4-thiadiazol-2-yl)-4-(trifluoromethyl)benzamide] | 25.9 | 
CC(C)c1cc(C(C)C)c(C(=O)Nc2nnc(NCc3cccnc3)s2)c(C(C)C)c1 [compound 399, 2,4,6-triisopropyl-N-{5-[(3-pyridinylmethyl)amino]-1,3,4-thiadiazol-2-yl}benzamide] | 25.8 | 
CC(=O)NCCNc1nnc(NC(=O)/C=C/c2ccccc2)s1 [compound 400, (E)-N-(5-{[2-(acetylamino)ethyl]amino}-1,3,4-thiadiazol-2-yl)-3-phenyl-2-propenamide] | 25.8 | 
